Data taken from US20050101002A1, “Process for production of low temperature active alkaline protease from a deep-sea fungus” (COUNCIL OF SCIENTIFIC & INDUSTRIAL RESEARCH, priority 2003, published 2005).
Entries after “also recorded” stand apart in the source; their conditions may differ.

Tested on: protease of Aspergillus sp. MTCC 5102
Test: Protease assayed in the presence of EDTA, PMSF, HgCl2
Format: biochemical
Conditions: for Inhibition of protease activity (in words): assayed in the presence of the additive
Experimental: The said fungus Aspergillus sp. MTCC 5102 is grown in malt extract broth containing 2% malt extract and 0.3% peptone in sea water. The 7-day old fungal mat obtained this way was macerated and used as a starter inoculum for the experimental cultures containing glucose or cellulose at a concentration of 1% (w/v). Casein, spray-dried dairy whitener, soybean meal, molasses or corn steep liquor at a 1% concentration was used as the organic nitrogen source. The Czapek Dox broth to which the above mentioned nitrogen-containing substrates were added independently, contained 10 g glucose, 2 g NaNO3, 1 g K2HPO4, 0.5 g MgSO4, 0.5 g KCl and 0.01 g Fe2SO4 L^−1 medium. The pH of the medium was adjusted to 7.0 or 9.0. This medium was prepared with distilled water or sea water. The cultures were grown as shallow static cultures for 4-6 days. The cell-free clear supernatant obtained after filtration through GF/F filters followed by 0.22 μm Nuclepore filters was used as the source of alkaline protease. Protease activity was measured using Azocasein (Sigma Chemicals, Mo, USA) at 2% concentration. Azocasien Units (ACU) released at various temperatures and pH combinations were measured at 440 nm and expressed as an increase in absorbance by 0.001 in 1 minute (Alfredsson, G. A, Gudmundsson H. M., Xiang J. Y., Kristjansson M. M. 1995, Subtilisin-like serine proteases from psychrophilic marine bacteria. J. Mar. Biotech. 3: 71-72). Substrate and enzyme blanks were maintained for all the assays. All the assays were run in triplicates.
The said fungus Aspergillus sp. MTCC 5102 was grown as described in Example 1 and the clear supernatant was used for testing whether the protease enzyme was serine or metalloprotease. For this purpose the enzyme was assayed in the presence of 50 mM […] (EDTA), 2 mM phenylmethylsulfonyl fluoride (PMSF) and 200 μM mercuric chloride (HgCl2).

O=C(O)CN(CCN(CC(=O)O)CC(=O)O)CC(=O)O [EDTA, ethylenediamine tetraacetic acid]
% inhibition (50 mM): 6% | Residual specific activity (%) (50 mM): 94% | Inhibition of protease activity (in words): not inhibited; also recorded: no inhibition of activity

[Cl][Hg][Cl] [HgCl2, mercuric chloride]
% inhibition (200 μM): 14% | Residual specific activity (%) (200 μM): 86% | Inhibition of protease activity (in words): not inhibited

O=S(=O)(F)Cc1ccccc1 [PMSF, phenylmethylsulfonyl fluoride]
% inhibition (2 mM): 100% | Residual specific activity (%) (2 mM): 0% | Inhibition of protease activity (in words): totally inhibited; also recorded: inhibition of the activity
